Assay results published in US20070155720A1, “Co-administration of dopamine-receptor binding compounds” (DarPharma, Inc., priority 2003, published 2007).
pIC50, pKi: −log10 of the molar value.

Legend:
[1] = target: 40 binding sites (other than the D1 site); assay: Screen for activity at 40 binding sites; settings: 40 binding sites other than D1, all except D2 and alpha2 adrenergic; read-out: IC50 at binding sites found inactive
Text: (§1) […]. […] […].

[2] = target: alpha2 adrenergic receptors; assay: Binding site screen, alpha2 adrenergic receptors
Text: as §1

D4 receptor = target: T1, D4 receptor (Rattus norvegicus, UniProt P30729); assay: Binding, cloned D4 receptor in CHO cells; set-up: expressed in transfected cells; host or cells: CHO cells; settings: read-out: Cloned Receptors D4 CHO (rat)
T1 sequence (P30729 1-387): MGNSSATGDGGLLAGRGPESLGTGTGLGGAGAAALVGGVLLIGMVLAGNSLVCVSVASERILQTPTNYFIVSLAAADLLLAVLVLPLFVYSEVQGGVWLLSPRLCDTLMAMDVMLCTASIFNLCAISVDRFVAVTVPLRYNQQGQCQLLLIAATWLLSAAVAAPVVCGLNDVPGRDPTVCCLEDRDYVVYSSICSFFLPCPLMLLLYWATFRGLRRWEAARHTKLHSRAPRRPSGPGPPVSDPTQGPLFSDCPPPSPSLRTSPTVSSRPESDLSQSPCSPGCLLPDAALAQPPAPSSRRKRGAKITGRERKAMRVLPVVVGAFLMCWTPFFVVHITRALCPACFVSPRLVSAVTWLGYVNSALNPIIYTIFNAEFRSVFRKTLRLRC

D1A receptor (C-6-mD1A) = target: T2, D1A receptor (C-6-mD1A) (Macaca mulatta, UniProt O77680); assay: Binding, cloned D1A receptor in C-6 cells; set-up: species or system monkey (rhesus macaque); settings: monkey receptor, read-out: Cloned Receptors D1A C-6 (monkey)
T2 construct: expressed in transfected cells; host or cells: C-6 glioma cells
T2 sequence (O77680 whole entry): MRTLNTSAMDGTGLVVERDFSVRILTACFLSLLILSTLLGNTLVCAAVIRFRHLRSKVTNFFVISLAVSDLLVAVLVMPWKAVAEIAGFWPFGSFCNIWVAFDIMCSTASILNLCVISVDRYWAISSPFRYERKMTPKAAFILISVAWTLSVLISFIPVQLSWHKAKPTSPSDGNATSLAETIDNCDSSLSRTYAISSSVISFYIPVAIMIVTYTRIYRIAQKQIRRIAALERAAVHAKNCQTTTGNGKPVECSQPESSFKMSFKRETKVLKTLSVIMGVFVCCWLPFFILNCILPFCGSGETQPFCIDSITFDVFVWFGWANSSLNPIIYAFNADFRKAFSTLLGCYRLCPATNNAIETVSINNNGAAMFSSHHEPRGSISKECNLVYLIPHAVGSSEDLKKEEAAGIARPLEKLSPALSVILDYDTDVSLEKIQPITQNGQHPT
Description: Cells were grown in DMEM-H medium containing 4,500 mg/l glucose, L-glutamine, 5% fetal bovine serum and 600 ng/ml G418. […] Cells were plated into 24-well plates and allowed to grow to confluence (usually 2-4 days), after which they were used for either dose-response or desensitization studies. For the binding studies, 75-cm^2 flasks of confluent cells were treated as described below. All studies (functional and receptor binding) used cells from passages 2 to 20.
Flasks of cells in the same passage were rinsed with 5 ml hypoosmotic buffer (1 mM HEPES, 2 mM EGTA, pH 7.4), and then incubated with 7 ml hypoosmotic buffer for 5 to 10 min at 4° C. Cells were then scraped off the bottom of the flask with a rubber policeman, collected into 50-ml tubes and centrifuged at 28,000×g at 4° C. for 20 min. […] Aliquots contained approximately 1 mg/ml of protein, as measured with the BCA protein assay reagent (Pierce, Rockford, Ill.). […]
For dose-response studies, data were calculated for each sample and expressed initially as pmol cAMP per mg protein per min. […] Normalized dose-response curves were analyzed by nonlinear regression with an algorithm for sigmoid curves in the curve-fitting program Prism (Graphpad Inc., San Diego, Calif.). […] For competition binding studies, the raw data (expressed in dpm) were analyzed by nonlinear regression with a sigmoid dose-response model in Prism. […]

[3] = tested on: dopamine release or reuptake; assay: Dopamine release and reuptake
Text: as §1

D3 receptor = D3 receptor (Rattus norvegicus, UniProt P19020); assay: biochemical
D3 receptor, sequence (P19020 whole entry): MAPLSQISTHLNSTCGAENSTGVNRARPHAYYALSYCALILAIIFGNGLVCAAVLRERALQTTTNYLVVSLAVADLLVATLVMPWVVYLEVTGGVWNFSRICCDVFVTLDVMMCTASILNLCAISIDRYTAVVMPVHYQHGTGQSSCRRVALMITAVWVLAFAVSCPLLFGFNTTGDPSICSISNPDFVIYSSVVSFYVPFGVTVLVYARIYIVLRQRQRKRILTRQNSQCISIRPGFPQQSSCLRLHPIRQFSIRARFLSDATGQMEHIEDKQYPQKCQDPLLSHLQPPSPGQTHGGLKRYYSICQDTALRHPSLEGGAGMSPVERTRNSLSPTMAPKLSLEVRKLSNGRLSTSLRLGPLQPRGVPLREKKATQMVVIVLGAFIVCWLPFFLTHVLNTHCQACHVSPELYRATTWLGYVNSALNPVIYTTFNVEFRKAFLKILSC

monkeys = settings: young, intact monkeys; cited from earlier work
MPTP-treated monkeys = assay: Cognitive deficits in chronic low dose MPTP-treated monkeys, delayed response task; type: in vivo, monkey
Text: Two adult male Macaca fascicularis monkeys (4.7 and 5.7 kg initial body weight) and 1 female Macaca nemistrina monkey (5.0 kg initial body weight) were trained to perform a delayed response task. Briefly, animals were trained and tested on delayed response while seated in a restraining chair placed inside a sound attenuating modified Wisconsin General Test Apparatus. The monkey sat behind an opaque screen that when raised, allowed access to a sliding tray that contained recessed food wells with identical sliding white Plexiglas covers that served as stimulus plaques that could be displaced by the animal to obtain rewards (e.g. raisins). Monkeys were trained to retrieve a raisin from one of the food wells after observing the experimenter bait the well. […]
Training was accomplished with a non-correction procedure, beginning with a 0 s delay and progressing to a 5 s delay. […] A response was scored a “mistake” if the monkey made its response choice to a well that was not baited with reward. […]
Compounds and/or compositions described herein are tested by dissolving in physiological saline containing 0.2% ascorbate and administering subcutaneously. Ilustratively, compounds and/or compositions described herein are used at 0.3, 0.6, and 0.9 mg/kg doses, calculated as the free base where appropriate. The order of dose administration is determined randomly. […]

adenylate cyclase = assay: Stimulation of adenylate cyclase in brain tissue; type: biochemical; settings: rat, monkey, and human brain tissue
Text: as §1

[4] = tested on: acetylcholine release in striatum and frontal cortex; assay: Acetylcholine release by in vivo microdialysis in conscious, freely-moving rats; set-up: species or system rat
[5] = Pharmacokinetic studies in rodents and non-human primates; type: in vivo
Text: […]. […] […]

[6] = tested on: rats with scopolamine-induced deficits; assay: Passive avoidance in rats, scopolamine-induced amnesia; type: in vivo, rat
Description: The protocol summarized below is one of many variants of the passive avoidance procedure using scopolamine-induced amnesia (for review see Rush, Behav Neural Biol 50:255-274, 1988). This procedure is commonly used to identify drugs that may be useful in treating cognitive deficits, particularly those observed in AD. The effects of the D
Testing was conducted in standard 2-compartment rectangular passive avoidance chambers (San Diego Instruments, San Diego, Calif.) with black plexiglas sides and grid floors. The light compartment of the chambers were illuminated by a 20 W lamp located in this compartment; the dark side of the chambers will be shielded from light, except for light penetrating the opening connecting the two compartments of each chamber.
On training day, groups of 8 rats were injected with scopolamine (3.0 mg/kg, ip) or vehicle (1.0 ml/kg) 30 min prior to training. Scopolamine served as the dementing agent in this experiment. Ten min prior to training, each group of rats received a second injection of vehicle or a dose of DHX. At the end of the pretreatment interval, each rat was placed individually in the light compartment facing away from the opening between compartments. The latency for each rat to travel from the light to the dark compartment was measured up to a maximum of 300 sec; any animal not entering the dark compartment within 300 sec was discarded from the test group. Once the animal entered the dark compartment completely, a 1.0 milliampere, 3.0 sec scrambled shock was delivered to the entire grid floor. The animal was allowed to remain in the dark compartment during this 3.0 sec period or to escape to the light compartment. Each rat was then returned immediately to its home cage.
Twenty-four hr after training, each rat was tested in the same apparatus for retention of the task (to remain passively in the light compartment). […] The latency for animals to enter the dark compartment on test day (step-through latency) was recorded up to a maximum of 600 sec. Each animal was used only once in a single experiment.
A one-way analysis of variance (ANOVA) and Newman-Keuls post-hoc comparisons were used to identify significant deficits in passive avoidance responding produced by scopolamine and their reversal by DHX; a p value of less than 0.05 was used as the level of significance.

[7] = Half-life and duration of functional activity; type: in vivo

SMILES: Cl.Oc1cc2c(cc1O)[C@@H]1c3ccccc3CN[C@H]1CC2 (relative stereo) [Compound 6a, Trans-10,11-dihydroxy-5,6,6a,7,8,12b-hexahydrobenzo[a]phenanthridine hydrochloride]
- pIC50 [1]: < 5.00
- pIC50 [2]: ~6.64
- pKi (D4 receptor): 7.89
- pKi (D1A receptor (C-6-mD1A)): 8.66
- Releasing dopamine or blocking its reuptake [3]: inactive
- pKi (D3 receptor): 7.74
- Spatial working memory (monkeys): produced improvements
- Cognitive deficits produced by chronic low dose MPTP treatment (MPTP-treated monkeys): improve cognitive deficits
- Efficacy in stimulating adenylate cyclase in brain tissue (adenylate cyclase): full efficacy
- Acetylcholine release [4]: dose-related increases
- Clearance from plasma ([5]; in vivo): cleared rapidly
- Blood levels ([5]; rodents and non-human primates, following iv, sc and po administration): significant blood levels
- Shape of dose-response curve in passive avoidance [6]: inverted U-shaped dose-response curve
- Scopolamine-induced deficits in step-through latency ([6]; dose of 0.3 mg/kg, scopolamine 3.0 mg/kg ip): significantly improved
- Increase in step-through latency ([6]; doses of 0.1 and 1.0 mg/kg, scopolamine 3.0 mg/kg ip): not statistically-significant
- Deficits induced by scopolamine ([6]; narrow range of doses (0.1, 0.3, and 1.0 mg/kg ip)): significantly improved
- Functional half-life ([7]; given subcutaneously): about 3 hr
- half-life ([7]; in vivo, iv, given intravenously, read-out: Half-life): ~30 min
